Starred links: 1 amine or outer side, 2 acyl side, 3 side chain; linkers in the order of their positions; H or OH if unused. Positions of bridges follow the written chain, without caps; N, C: chain ends. Non-standard residues stand in square brackets, D forms with d. Chains are numbered I, II in the order given. X3 = O=C(CCCc1ccc(I)cc1)NCCOCCOCCOCCOCCOCCOCCOCCOCCOCCOCCn1cc(CCC(=O)NC(COCCC(=O)NCCOCCOCCOCCOCCOCCOCCOCCOCCOCCOCCn2cc(CCC(=O)[*:1])nn2)(COCCC(=O)NCCOCCOCCOCCOCCOCCOCCOCCOCCOCCOCCn2cc(CCC(=O)[*:2])nn2)COCCC(=O)NCCOCCOCCOCCOCCOCCOCCOCCOCCOCCOCCn2cc(CCC(=O)[*:3])nn2)nn1; X2 = O=C(CCOCCN(CCOCCC(=O)NCCOCCOCCOCCOCCOCCOCCOCCOCCOCCOCCn1cc(CCC(=O)[*:2])nn1)CCOCCC(=O)NCCOCCOCCOCCOCCOCCOCCOCCOCCOCCOCCn1cc(CCC(=O)[*:3])nn1)NCCOCCOCCOCCOCCOCCOCCOCCOCCOCCOCCn1cc(CCC(=O)[*:1])nn1; X1 = C(c1nc(C[*:2])nc(C[*:3])n1)[*:1]; hArg = N=C(N)NCCCC[C@H](N)C(=O)O; tBuAla = CC(C)(C)C[C@H](N)C(=O)O; Agb = N=C(N)NCC[C@H](N)C(=O)O
Tests used:
[1] = Pharmacokinetic analysis in mouse; type: in vivo; conditions: 3 mg/kg; for half-life: in vivo
Description: In one embodiment, the multimeric binding complex additionally comprises a half-life extending moiety. References herein to half-life extending moieities refer to any moiety capable of extending the half-life of the resultant multimeric binding complex in vivo when compared to the half-life of said multimeric binding complex in the absence of said half-life extending moiety.

[2] = system: SARS-CoV-2 pseudotyped HIV-1 virions, B.1.1.7 (Alpha)
SARS-CoV-2 = assay: Mouse Efficacy Model; type: in vivo, male K18-hACE2 mice; conditions: 100 mg/kg (tid) for three days, mice infected with SARS-CoV-2

Substance | half-life [1] [h] | half-life improvement ([1]; BCY19602 versus BCY18208 (no half-life extending moiety)) [fold] | IC50 [2] [nM] | total viral RNA in nasal turbinate (SARS-CoV-2; FIG. 4 (A)) | subgenomic RNA in nasal turbinate (SARS-CoV-2; FIG. 4 (B)) | total viral RNA in lung (SARS-CoV-2; FIG. 4 (C)) | subgenomic RNA in lung (SARS-CoV-2; FIG. 4 (D))
I: Ac-CPYVAG[hArg][dA]TCL[tBuAla]CK-NH2 / II: Ac-CPYVAG[hArg][dA]TCL[tBuAla]CK-NH2 / III: Ac-CPYVAG[hArg][dA]TCL[tBuAla]CK-NH2 (linker I:1-I:10-I:13, II:1-II:10-II:13, III:1-III:10-III:13 via X1; linker I:14-II:14-III:14 via X2) [BCY18208] | 0.3 | – | – | – | – | – | –
I: Ac-CPYVAG[hArg][dA]TCL[tBuAla]CK-NH2 / II: Ac-CPYVAG[hArg][dA]TCL[tBuAla]CK-NH2 / III: Ac-CPYVAG[hArg][dA]TCL[tBuAla]CK-NH2 (linker I:1-I:10-I:13, II:1-II:10-II:13, III:1-III:10-III:13 via X1; linker I:14-II:14-III:14 via X3) [BCY19602] | 3.1 | 10 | – | – | – | – | –
I: Ac-CPYVAG[Agb][dA]TCL[tBuAla]CK-NH2 / II: Ac-CPYVAG[Agb][dA]TCL[tBuAla]CK-NH2 / III: Ac-CPYVAG[Agb][dA]TCL[tBuAla]CK-NH2 (linker I:1-I:10-I:13, II:1-II:10-II:13, III:1-III:10-III:13 via X1; linker I:14-II:14-III:14 via X2) [BCY17021] | – | – | 0.3 | reduction of total viral RNA in nasal turbinate | reduction of subgenomic RNA in nasal turbinate | reduction of total viral RNA in lung | reduction of subgenomic RNA in lung

Source: patent US20240083944A1 (priority 2021, published 2024)
